Data: US20230381275A1, “MUSCULAR FUNCTION IMPROVING AGENT FOR SKELETAL MUSCLE OF WHICH FUNCTION IS DEGRADED DUE TO AGING” (OSAKA UNIVERSITY, priority 2020, published 2023)

How the values were obtained:
Assay type in all cases: in vivo
[1] = tested on: aging-accelerated model mice (SAMP10); assay: Number of collisions during treadmill running, weekly test (Example 1); conditions: after 30 weeks of age (tested to 35 weeks), SV peptide 20 ng/ml injected into bilateral lower limb muscles after treadmill training, vs PBS control group, FIG. 1
Description: In this example, a peptide consisting of the amino acid sequence of SVVYGLR (SEQ ID No.: 1) (SV peptide) was administered to aging-accelerated model mice, and their effects on restoring muscle function were confirmed.
SV peptide was synthesized by the Fmoc method using a multi-species solid-phase automated peptide synthesizer (PSSM-8; Shimadzu Corp.) SV peptide was added to PBS and adjusted to 20 ng/ml to prepare an injection formulation.
Aging-accelerated model mice (SAMP10 21 weeks old) were used to perform training on a treadmill (MK-680; Muromachi Kikai Co., Ltd.) and subsequent SV peptide administration according to the schedule in the following table. […]
Once a week, the mice were tested on a treadmill to measure the number of collisions. After SV peptide injection, the mice have trained on the treadmill again (18 m/min×90 min), and the number of times the mice collided with the treadmill wall due to being unable to run at a speed equal to or faster than that of the belt was measured during treadmill training. […] In the control group, after training on the treadmill in the same manner as the experimental group, PBS was injected into the bilateral lower limb muscles instead of SV peptide, and the number of collisions was measured once a week.

[2] = tested on: aging-accelerated model mice; assay: Endurance evaluation test on treadmill (Example 5); conditions: SV group
Description: (§1) In this example, the training schedule and SV peptide administration concentration were changed from Example 4, and exercise evaluation (endurance evaluation) was conducted in aging-accelerated model mice when SV peptide was continuously administered. In addition, the cross-sectional area of muscle fibers (gastrocnemius (type I, type IIa, type IIb), extensor digitorum longus, and tibialis anterior muscles) were evaluated in mice that continued training and SV peptide administration until 51 weeks of age.
(§2) Aging-accelerated model mice were trained on a treadmill (MK-680; Muromachi Kikai Co., Ltd.) (18 m/min×90 min) and subsequent SV peptide administration was performed according to the schedule in the following table. 30 weeks of age and thereafter, training was performed continuously from Monday to Friday of each week. SV peptide was added to PBS to adjust to a concentration of 1 μg/ml for an injection formulation and localized to the bilateral leg muscles of each mouse anesthetized by inhalation with sevoflurane immediately after training on Tuesday and Friday (SV group; twice weekly administration). Exercise evaluations were performed every other Friday.
Exercise evaluation was performed by endurance assessment, in which the belt speed on the treadmill was increased stepwise at regular intervals. The elapsed time and belt speed increase used for the endurance evaluation test were the same as in Example 4. In the PBS group as a control group, PBS was injected into the bilateral leg muscles instead of SV peptide after training on the treadmill in the same manner as in the SV group.
The results of the endurance evaluation test are shown in FIG. 7 as a graph showing the difference between the mean running distance on the reference date (30 weeks of age) and the mean running distance in each test.
The results of the endurance evaluation test are also shown in FIG. 8 as a graph showing the difference between the mean speed on the reference day and the mean speed on each test day. The mean speed for each group was calculated as the mean of the highest speeds reached by each mouse in each group (mean speeds were calculated in the same manner hereinafter).

[3] = tested on: aging-accelerated model mice; assay: Mean cross-sectional area of muscle fibers, HE staining, 51-week-old mice (Example 5)
Description: as §1, §2
The gastrocnemius, extensor digitorum longus, and tibialis anterior muscles of the lower limbs were removed from 51-week-old aging-accelerated model mice, and after sections were prepared according to the standard method, the cross-sectional area of muscle fibers was measured by HE staining. […] The mean cross-sectional area of muscle fibers was also measured for each type of gastrocnemius muscle fiber (type I, type IIa, and type IIb). The mean cross-sectional area of muscle fibers was the mean of more than 50 fibers of each muscle fiber type.

[4] = tested on: aging-accelerated model mice; assay: Endurance evaluation test on treadmill (Example 7)
Description: In this example, the number of SV peptide doses and dosage in Example 4 were changed as shown in the following table, and exercise evaluation (endurance evaluation) was performed when SV peptide was continuously administered to aging-accelerated model mice. The conditions other than the number of SV peptide doses and dosage were the same as in Example 4.
Specifically, SV peptide was added to PBS to adjust to a concentration of 20 μg/ml for the injectable formulation, and localized to the bilateral lower limb muscles of each mouse anesthetized by inhalation with sevoflurane immediately after training once every 4 weeks (Friday) (SV group; once every 4 weeks).
The results of the endurance evaluation test are shown in FIG. 14 with a graph showing the mean running distance for the SV group (n=6) and the PBS group (n=6). In addition, graphs showing the difference between the mean running distance on the reference date (30 weeks of age) and the mean running distance in each test are shown in FIGS. 15 and 16. […] In FIG. 16, the sum of the absolute difference in mean running distance relative to the reference date in the SV group and the absolute difference in mean running distance relative to the reference date in the PBS group is shown as the SV treatment effect.
The change over time in the mean maximum speed in each group is shown in FIG. 17, and graphs showing the difference between the mean maximum speed on the reference date and the mean maximum speed on each test date are shown in FIGS. 18 and 19. […] In FIG. 19, the sum of the absolute difference in mean running distance relative to the reference date in the SV group and the absolute difference in mean running distance relative to the reference date in the PBS group is shown as the SV treatment effect. The treatment effect of more than 0.15 m/sec was confirmed at 34 and 39-41 weeks.

[5] = SV group vs PBS group, mean of more than 50 fibers, FIGS. 10 and 11
[6] = SV peptide 1 μg/ml plus training from 28 to 51 weeks, vs PBS group, FIG. 9

## SVVYGLR [SV peptide, peptide consisting of 7 amino acids (SVVYGLR]
[1]
  number of collisions during treadmill running: significant suppression of the increase in the number of collisions compared to the control group
[2]; 1 μg/ml twice weekly plus training, relative to the PBS group, FIG. 7
  decrease in the mean running distance during the test period: able to suppress the decrease in the mean running distance
[2]; 1 μg/ml twice weekly plus training, relative to the PBS group, FIG. 8
  decrease in mean speed during the test period: able to suppress the decrease in mean speed
[2]; 1 μg/ml twice weekly plus training, test from 31 to 39 weeks of age, FIG. 8
  mean speed (mean of highest speeds reached) relative to reference day: increased continuously
[2]; SV peptide 1 μg/ml twice weekly plus training, tests at 31 to 41 weeks of age, FIG. 7
  mean running distance relative to the reference date (30 weeks of age): increased from the reference date
[3]; [5]
  cross-sectional area of type I gastrocnemius muscle fibers: increased compared to the PBS group
  cross-sectional area of type IIa gastrocnemius muscle fibers: increased compared to the PBS group
  cross-sectional area of type IIb gastrocnemius muscle fibers: increased compared to the PBS group
[3]; [6]
  mean cross-sectional area of muscle fibers, extensor digitorum longus muscle: significantly larger than that in the PBS group
  mean cross-sectional area of muscle fibers, gastrocnemius muscle: significantly larger than that in the PBS group
  mean cross-sectional area of muscle fibers, tibialis anterior muscle: significantly larger than that in the PBS group
[4]; FIG. 19, at 34 and 39-41 weeks, SV peptide 20 μg/ml once every 4 weeks plus training
  SV treatment effect (sum of absolute differences relative to the reference date of SV group and PBS group): more than 0.15 m/sec
[4]; SV group, 20 μg/ml once every 4 weeks plus training, at 41 weeks of age vs 30 weeks of age
  mean maximum speed: same mean maximum speed at 41 weeks of age as at 30 weeks of age
[4]; SV group, 20 μg/ml once every 4 weeks plus training, compared to the PBS group
  decrease in the mean maximum speed during the test period: able to suppress the decrease in the mean maximum speed
[4]; SV group, 20 μg/ml once every 4 weeks plus training, test from 31 to 36 weeks of age, FIG. 17
  mean speed (mean maximum speed): continuous increase
[4]; SV group, SV peptide 20 μg/ml once every 4 weeks plus training, at 41 weeks of age vs 30 weeks of age
  mean running distance: exceeded that of 30 weeks of age
[4]; SV group, SV peptide 20 μg/ml once every 4 weeks plus training, from 31 to 36 weeks of age, FIGS. 14-16
  mean running distance: increased significantly
